Results from article PMC7887271, “Fast acting allosteric phosphofructokinase inhibitors block trypanosome glycolysis and cure acute African trypanosomiasis in mice” (Nature Communications, 2021).
Entries after “also recorded” stand apart in the source; their conditions may differ. Where two headings read alike, the source gives them in different places.

Experiments:
[1] = Plasma protein binding, mouse plasma; assay type: in vitro ADME
Description: (§1) A HepG2 cytotoxicity assay was used to determine a cellular selectivity index. HepG2 cells were seeded into 96-well plates in EMEM medium. Compounds were assessed for their effect upon cellular viability (Supplementary Methods 5.1). Inhibition of CYP450 was determined using kits from BD Biosciences (Supplementary Methods 5.2). Metabolic stability was determined using mouse […] tested at a single concentration of 5 µM. Plasma protein binding was determined using mouse and human plasma at a single concentration of 10 µM (Supplementary Methods 5.4). All PK studies in mice were carried out by Pharmidex (Supplementary Methods 6.1).
Compounds were tested for protein binding using mouse and human plasma at a single concentration of 10 µM and measured by equilibrium dialysis between plasma and buffer. The amount of parent was determined on both sides of the membrane after incubating for 4 hours at 37 °C. The samples were crashed with acetonitrile and put through protein precipitation plates. The eluent was analysed by LC/MS or LC/MS/MS. Output was percentage bound.

[2] = Metabolic stability, mouse liver microsomes; assay type: in vitro ADME; details: read-out: MLM Clint
Description: as §1
Compounds were tested for their metabolic stability using mouse and human liver microsomes (MLM and HLM). The compounds were tested at a single concentration of 5 µM. The samples were crashed with acetonitrile and put through protein precipitation plates. The eluent was analysed by LC/MS or LC/MS/MS.

[3] = system: bloodstream form of T. brucei strain Lister 427; assay: T. b. brucei 427 growth inhibition assay (LILiT, Alamar Blue); assay type: cell-based; details: Trypanosoma brucei
Description: The ‘in vitro’ parasite killing assay used the BSF of the non-human pathogenic subspecies T. b. brucei, strain Lister 427, cultured in HMI-9 medium containing 10% foetal bovine serum. A second cell line, T. b. brucei GVR35-Luc2 which constitutively expresses firefly luciferase was grown in Modified HMI-9 plus 20% foetal calf serum supplemented with 20% Serum Plus (Sigma) and 0.15 μg mL^−1 puromycin. Both strains of trypanosomes were cultured in T-25 vented cap flasks at 37 °C and 5% CO2.
The ‘in vitro’ parasite killing assay used the bloodstream-form of the non-human pathogenic subspecies T. b. brucei, strain Lister 427 (a gift from Professor Keith Matthews) which was cultured in HMI-9 medium containing 10% fetal bovine serum (FBS). A second cell line, T. b. brucei GVR35-Luc2 which constitutively expresses firefly luciferase (5) was grown in Modified HMI-9 plus 20% fetal calf serum (FCS) supplemented with 20% Serum Plus (Sigma) and 0.15 μg/ml puromycin as described previously (5). Both strains of trypanosomes were cultured in T-25 vented cap flasks at 37 °C and 5% CO2.
Growth inhibition tests of bloodstream-form T. b. brucei Lister 427 were carried out using the LILiT (long incubation low inoculation test) method (6). The parasites were cultured in complete HMI-9 medium containing 10% FBS in 96-well plates (Greiner Inc.) with approximately 2500 trypanosomes per well. A 3-fold dilution series (in the range from 45 µM – 0.020 µM) of the inhibitor compounds were prepared in the plate; the maximal concentration of DMSO was 0.45%. After 72 hours of incubation at 37 °C and 5% CO2, 50 µl Alamar Blue (0.2% diluted with Dulbecco’s-phosphate buffered saline (D-PBS, Sigma) was added to each well and plates were incubated at 37 °C and 5% CO2 for 4 hours. Fluorescence was read on the BMG multiplate reader using an excitation wavelength of 530 nm and an emission wavelength of 590 nm.

CYP2C9 = biological target: T1, CYP2C9 (Homo sapiens, UniProt P11712); assay: Inhibition of CYP450 2C9; assay type: in vitro ADME; details: CYP450 isoform inhibition kit (BD Biosciences), probe MFC
T1 construct: purchased BD Biosciences
T1 sequence (P11712 whole entry, canonical isoform): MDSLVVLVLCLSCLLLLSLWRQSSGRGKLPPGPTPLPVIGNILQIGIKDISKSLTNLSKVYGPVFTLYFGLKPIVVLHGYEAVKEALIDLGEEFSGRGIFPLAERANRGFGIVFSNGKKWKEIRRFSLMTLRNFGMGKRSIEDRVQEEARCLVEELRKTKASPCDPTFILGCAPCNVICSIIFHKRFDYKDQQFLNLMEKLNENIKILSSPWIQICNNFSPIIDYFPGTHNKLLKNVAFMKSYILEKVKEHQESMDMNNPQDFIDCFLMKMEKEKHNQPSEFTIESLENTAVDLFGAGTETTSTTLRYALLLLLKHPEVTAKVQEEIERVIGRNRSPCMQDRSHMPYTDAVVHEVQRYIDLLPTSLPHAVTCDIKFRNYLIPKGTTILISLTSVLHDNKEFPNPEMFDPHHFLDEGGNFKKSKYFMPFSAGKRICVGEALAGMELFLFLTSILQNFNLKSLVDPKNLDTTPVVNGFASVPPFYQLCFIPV
Description: as §1
The compounds were investigated for their inhibitory effect on cytochrome P450 (CYP450) activity using five CYP450 isoforms (with fluorescent substrates in brackets): 3A4 (two substrates, BFC and DBF), 2D6 (AMMC), 2C9 (MFC), 2C19 (CEC) and 1A2 (CEC). Kits from BD Biosciences were used along with the method described by the manufacturer. […] Fluorescence was measured using a SpectraMax M5 plate reader.

T. b. brucei Lister 427 = assay: Mouse model of stage 1 HAT; assay type: in vivo, T. b. brucei in female CD-1 mice
Description: T. b. brucei Lister 427 infection is cured by 1-day dosing. […] These parasites have a doubling time of ~6 h and infection with 1 × 10^5 parasites usually requires euthanasia of mice within 4–5 days of infection in the absence of drug treatment. Drug efficacy is determined by taking regular blood samples from infected mice and checking microscopically for parasitaemia. In this model of acute infection a single surviving parasite should proliferate to reach detectable levels in ~5 days and a 30-day period of no parasite detection is considered as cure.
For the mouse model of stage 1 HAT T. b. brucei Lister 427 parasites (1 × 10^5) were injected into a single donor female CD-1 mouse (University of Edinburgh; 6–8 weeks old) intraperitoneally in D-PBS containing 10 mM glucose. Parasites for subsequent stage 1 HAT infection were obtained from whole blood via cardiac puncture, under gaseous isoflurane anaesthesia. Parasites (1 × 10^3) harvested from the donor mouse were then injected into the peritoneum of female CD-1 mice (University of Edinburgh; 6–8 weeks old) in D-PBS containing 10 mM glucose. One day after infection, animals were either left untreated (n = 3) or dosed orally by gavage (n = 5) with CTCB compound in Cremophor EL: EtOH: D-PBS (30:10:60 v/v; Supplementary Methods 6.3).
T. b. brucei Lister 427 parasites (1 x 10^5) were injected into a single donor female CD-1 mouse (University of Edinburgh; 6-8 weeks old) intraperitoneally in D-PBS containing 10 mM glucose. Parasites for subsequent Stage 1 HAT infection were obtained from whole blood via cardiac puncture, under gaseous isoflurane anaesthesia as described above. Parasites (1 x 10^3) harvested from the donor mouse were then injected into the peritoneum of female CD-1 mice (University of Edinburgh; 6-8 weeks old) in D-PBS containing 10mM glucose. One day after infection, animals were either left untreated (n=3) or dosed orally by gavage (n=5) with CTCB compound in Cremophor EL: EtOH : D-PBS (30:10:60 v/v). The veterinary trypanocidal drug pentamidine isethionate (2.5 mg/kg for 4 consecutive days after infection) was administered intraperitoneally as control (n=3) for parasite elimination. Mice were monitored daily for parasitaemia day 1 post-infection onwards. Trypanosomes were quantified in blood samples from the tail vein by microscopy as previously described (12). Animals were sacrificed on the day that parasites were first detected in blood samples. (Supplementary Figure 11)

[4] = 10 µM, equilibrium dialysis, read-out: Mouse plasma protein binding fu(%)
[5] = percentage bound, read-out: mouse plasma protein binding value (converted)
[6] = 72 h, Alamar Blue, read-out: EC50 (µM) in vitro parasite killing of bloodstream form T. brucei Lister 427 (Tbb EC50)
[7] = Glycerol 0.75 mM, read-out: EC50
[8] = Glycerol 5.0 mM, read-out: EC50
[9] = three oral 50 mg kg^−1 doses 2 h apart daily over 2 days, n = 5

| SMILES | fraction unbound at 4 h, 10 µM [1, 4] | fraction unbound at 4 h, 10 µM [1, 5] | microsomal CLint at 5 µM [2] | EC50 [3, 6] | EC50 ([3]; Glycerol 0 mM, read-out: EC50) | EC50 [3, 7] | EC50 [3, 8] | EC50 ([3]; Glycerol […], read-out: EC50) | inhibition at 10 µM (CYP2C9) | delay of onset of parasitaemia (T. b. brucei Lister 427; single oral doses of 50 mg kg^−1 over four consecutive days) | outcome of treatment (T. b. brucei Lister 427; [9]) | outcome of treatment (T. b. brucei Lister 427; three oral doses of 100 mg kg^−1 2 h apart on a single day, n = 5) | infected mice with complete cure (T. b. brucei Lister 427; three oral doses of 100 mg kg^−1 at 2 h intervals on 1 day, cure = no parasitaemia for >30 days) | outcome of treatment (T. b. brucei Lister 427; two daily oral doses at 25 mg/kg delivered 4 hours apart, n=5) | EC50 ([3]; 72 h, read-out: EC50 (µM) in vitro parasite killing of bloodstream form T. brucei Lister 427 (Tbb EC50), 72 h, Alamar Blue) |
| --- | --- | --- | --- | --- | --- | --- | --- | --- | --- | --- | --- | --- | --- | --- | --- |
| CN(C)CCn1ccc2c(ccn2Cc2ccc(Cl)c(Cl)c2)c1=O [CTCB-405, 1-[(3,4-Dichlorophenyl)methyl]-5-[2-(dimethylamino)ethyl] pyrrolo[3,2-c]pyridin-4-one] | 0.058 | 0.06 | 70 µL/min/mg | 0.37 ± 0.04 µM | 0.27 µM | 0.33 µM | 0.45 µM | 0.32 µM | 11% | up to 12 days | parasite clearance; also recorded: complete cure; also recorded: either complete clearance or a significant increase in survival | parasites are undetectable; also recorded: no recurrence of parasitaemia 30 days post infection | 5/5 | prolongs survival but does not improve efficacy | – |
| CNCCn1ccc2c(ccn2Cc2ccc(Cl)c(Cl)c2)c1=O [CTCB-435] | – | – | – | – | – | – | – | – | – | – | – | – | – | – | 0.25 ± 0.05 µM |
| CN(C)CCn1ccc2c(ccn2Cc2ccc(Cl)c(Br)c2)c1=O [CTCB-470, 1-[(3-Bromo-4-chlorophenyl)methyl]-5-[2-(dimethylamino)ethyl] pyrrolo[3,2-c]pyridin-4-one] | 0.06 | 0.058 | 91 µL/min/mg | 0.31 ± 0.03 µM | 0.23 µM | 0.26 µM | – | 0.26 µM | 28.5% | – | either complete clearance or a significant increase in survival | – | – | – | – |
| CN(C)CCn1ccc2c(ccn2Cc2ccc(F)c(Br)c2)c1=O [CTCB-508, 1-[(3-Bromo-4-fluorophenyl)methyl]-5-[2-(dimethylamino)ethyl] pyrrolo[3,2-c]pyridin-4-one] | 0.18 | – | 56 µL/min/mg | 0.3 ± 0.02 µM | – | 0.31 µM | 0.44 µM | 0.34 µM | 6.1% | – | either complete clearance or a significant increase in survival | – | – | – | – |
